Data set [1] deals with T1, immunoproteasome subunit LMP7 (Homo sapiens, UniProt P28062).
T1 construct: Lysate from the human acute lymphoblastic leukemia cell line, MOLT-4; endogenous in cells; host or cells: MOLT-4
Nature of the data set: Proteasome active-site ELISA (ProCISE), LMP7, MOLT-4 lysate. It is filed as biochemical. How it is done:
(§1) Test compounds were serially diluted in DMSO at 100× concentration, then diluted to 10× in aqueous hypotonic lysis buffer. Lysate from the human acute lymphoblastic leukemia cell line, MOLT-4, was treated for 1 hour at 25° C. with compound at a final 1× concentration. […] Following, lysate was denatured in guanidine hydrochloride, and subunits bound to probe were isolated with streptavidin-conjugated sepharose beads. Individual subunits (e.g., β5, LMP7, LMP2, MECL-1) were probed with subunit-specific primary antibodies, followed by HRP-conjugated secondary antibodies. A chemiluminescent substrate was used to generate signal associated with HRP binding, which was detected on a plate reader. Luminescent signal was normalized to protein content, then, percent activity calculated relative to DMSO-treated controls to generate IC50 curves.

Data set [2] addresses T2, proteasome subunit β5 (beta5) (Homo sapiens, UniProt P28074).
T2 construct: Lysate from the human acute lymphoblastic leukemia cell line, MOLT-4; endogenous in cells; host or cells: MOLT-4
Nature of the data set: Proteasome active-site ELISA (ProCISE), beta5, MOLT-4 lysate. It is filed as biochemical. The following applies: MOLT4 lysate, human, 1 h continuous treatment, 25° C. How it is done:
as §1

A further data set can be described thus: Solubility pH 7. The following applies: pH 7, aqueous buffer.
Where [3] appears, read: MOLT4 lysate, 1 h continuous treatment, 25° C.

Here are results for 23 compounds from patent publication USRE47302E1 (ONYX THERAPEUTICS INC., priority 2013, dated 2019).

Values after ≈ are worked out from the molar mass of the structure shown. Where two headings read alike, the source gives them in different places.

With `COc1ccc(C[C@H](NC(=O)[C@H](C)NC(=O)CN2CCOCC2)C(=O)N[C@@H](CC2CCC2)C(=O)[C@@]2(C)CO2)cc1` [Compound C-1004, (S)-N-((S)-3-cyclobutyl-1-((R)-2-methyloxiran-2-yl)-1-oxopropan-2-yl)-3-(4-methoxyphenyl)-2-((S)-2-(2-morpholinoacetamido)propanamido)propanamide], the half-maximal inhibitory concentration (IC50) was found to be 541 nM in data set [1] (setting [3]) and 1870 nM in data set [2]. The concentration in solution in “Solubility pH 7” (solubility) was 2500 µg/mL (≈ 4.47 mM).

For `COc1ccc(C[C@H](NC(=O)[C@H](C)NC(=O)CN2CCOCC2)C(=O)N[C@@H](CC2CC2)C(=O)[C@@]2(C)CO2)cc1` [Compound C-1006, (S)-N-((S)-3-cyclopropyl-1-((R)-2-methyloxiran-2-yl)-1-oxopropan-2-yl)-3-(4-methoxyphenyl)-2-((S)-2-(2-morpholinoacetamido)propanamido)propanamide], the IC50 was found to be 5150 nM in data set [1] (setting [3]) and 5240 nM in data set [2]. This compound yielded a solubility in “Solubility pH 7” of 2590 µg/mL (≈ 4.75 mM).

For `COc1ccc(C[C@H](NC(=O)[C@H](C)NC(=O)CN2CCOCC2)C(=O)N[C@@H](C[C@H]2CCCO2)C(=O)[C@@]2(C)CO2)cc1` [Compound C-1017, (S)-3-(4-methoxyphenyl)-N-((S)-1-((R)-2-methyloxhan-2-yl)-1-oxo-3-((R)-tetrahydrofuran-2-yl)propan-2-yl)-2-((S)-2-(2-morpholinoacetamido)propanamido)propanamide], the concentration for half-maximal inhibition (IC50) in data set [1] (setting [3]) came out at 1090 nM; in data set [2], 21700 nM. In the data set “Solubility pH 7”, this compound displayed a solubility of 11700 µg/mL (≈ 20.4 mM).

In turn, `COc1ccc(C[C@H](NC(=O)[C@H](C)NC(=O)CN2CCOCC2)C(=O)N[C@@H](CC2=CCCCC2)C(=O)[C@@]2(C)CO2)cc1` [Compound C-1019, (S)-N-((S)-3-(cyclohex-1-en-1-yl)-1-((R)-2-methyloxiran-2-yl)-1-oxopropan-2-yl)-3-(4-methoxyphenyl)-2-((S)-2-(2-morpholinoacetamido)propanamido)propanamide] showed an IC50 in data set [2] of 9330 nM. This compound yielded a solubility in the data set “Solubility pH 7” of 1760 µg/mL (≈ 3.01 mM).

As for `COc1ccc(C[C@H](NC(=O)[C@@H](C)NC(=O)[C@H]2CC[C@H](O)CC2)C(=O)N[C@@H](CC2CCCC2)C(=O)[C@@]2(C)CO2)cc1` [Compound C-1064, (1r,4R)-N-((R)-1-(((S)-1-(((S)-3-cyclopentyl-1-((R)-2-methyloxiran-2-yl)-1-oxopropan-2-yl)amino)-3-(4-methoxyphenyl)-1-oxopropan-2-yl)amino)-1-oxopropan-2-yl)-4-hydroxycyclohexanecarboxamide], the IC50 in data set [1] (setting [3]) is 60.5 nM; in data set [2], 4050 nM.

Regarding `COc1ccc([C@@H](O)[C@H](NC(=O)[C@@H](C)NC(=O)[C@H]2CC[C@H](O)CC2)C(=O)N[C@@H](CC2=CCCC2)C(=O)[C@@]2(C)CO2)cc1` [Compound C-1080, (1r,4R)-N-((R)-1-(((2S,3R)-1-(((S)-3-(cyclopent-1-en-1-yl)-1-((R)-2-methyloxiran-2-yl)-1-oxopropan-2-yl)amino)-3-hydroxy-3-(4-methoxyphenyl)-1-oxopropan-2-yl)amino)-1-oxopropan-2-yl)-4-hydroxycyclohexanecarboxamide], the IC50 in data set [1] (setting [3]) was found to be 25.2 nM; in data set [2], 1180 nM.

In the case of `Cc1ccc(C[C@H](NC(=O)[C@H](C)NC(=O)CN2CCOCC2)C(=O)N[C@@H](CC2=CCCCC2)C(=O)[C@@]2(C)CO2)cc1O` [Compound C-1130, (S)-N-((S)-3-(cyclohex-1-en-1-yl)-1-((R)-2-methyloxiran-2-yl)-1-oxopropan-2-yl)-3-(3-hydroxy-4-methylphenyl)-2-((S)-2-(2-morpholinoacetamido)propanamido)propanamide], the concentration in solution in the data set “Solubility pH 7” (solubility) came to 1140 µg/mL (≈ 1.95 mM).

Compound `Cc1cc(C[C@H](NC(=O)[C@H](C)NC(=O)CN2CCOCC2)C(=O)N[C@@H](CC2=CCCC2)C(=O)[C@@]2(C)CO2)ccc1O` [Compound C-1131, (S)-N-((S)-3-(cyclopent-1-en-1-yl)-1-((R)-2-methyloxiran-2-yl)-1-oxopropan-2-yl)-3-(4-hydroxy-3-methylphenyl)-2-((S)-2-(2-morpholinoacetamido)propanamido)propanamide] displayed a solubility in the data set “Solubility pH 7” of 1700 µg/mL (≈ 2.98 mM).

For `COc1ccc(C[C@H](NC(=O)[C@@H](NC(=O)CN2CCOCC2)C(F)(F)F)C(=O)N[C@@H](CC2=CCCC2)C(=O)[C@@]2(C)CO2)cc1` [Compound C-1132, (R)-N-((S)-1-(((S)-3-(cyclopent-1-en-1-yl)-1-((R)-2-methyloxiran-2-yl)-1-oxopropan-2-yl)amino)-3-(4-methoxyphenyl)-1-oxopropan-2-yl)-3,3,3-trifluoro-2-(2-morpholinoacetamido)propanamide], in “Solubility pH 7”, the solubility was found to be 159 µg/mL (≈ 0.254 mM). Compared with the last compound, the solubility is about 11-fold lower.

Consider `C[C@H](NC(=O)CN1CCOCC1)C(=O)N[C@@H](Cc1ccn(C)c(=O)c1)C(=O)N[C@@H](CC1=CCCC1)C(=O)[C@@]1(C)CO1` [Compound C-1137, (S)-N-((S)-3-(cyclopent-1-en-1-yl)-1-((R)-2-methyloxiran-2-yl)-1-oxopropan-2-yl)-3-(1-methyl-2-oxo-1,2-dihydropyridin-4-yl)-2-((S)-2-(2-morpholinoacetamido)propanamido)propanamide], for which, in “Solubility pH 7”, the solubility was above 10000 µg/mL.

With `C#CC[C@H](NC(=O)CN1CCOCC1)C(=O)N[C@@H](Cc1ccc(OC)cc1)C(=O)N[C@@H](CC1=CCCC1)C(=O)[C@@]1(C)CO1` [Compound C-1139, (S)-N-((S)-1-(((S)-3-(Cyclopent-1-en-1-yl)-1-((R)-2-methyloxiran-2-yl)-1-oxopropan-2-yl)amino)-3-(4-methoxyphenyl)-1-oxopropan-2-yl)-2-(2-morpholinoacetamido)pent-4-ynamide], the solubility in the data set “Solubility pH 7” stood at 172 µg/mL (≈ 0.289 mM).

Regarding `COc1ccc(C[C@H](NC(=O)[C@H](C)NC(=O)CN2CCOCC2)C(=O)N[C@@H](CC2=CCCC2)C(=O)[C@@]2(C)CO2)cn1` [Compound C-1140, (S)-N-((S)-3-(cyclopent-1-en-1-yl)-1-((R)-2-methyloxiran-2-yl)-1-oxopropan-2-yl)-3-(6-methoxypyridin-3-yl)-2-((S)-2-(2-morpholinoacetamido)propanamido)propanamide], in “Solubility pH 7”, the solubility was above 10000 µg/mL.

`COc1cc(C[C@H](NC(=O)[C@H](C)NC(=O)CN2CCOCC2)C(=O)N[C@@H](CC2=CCCC2)C(=O)[C@@]2(C)CO2)ccn1` [Compound C-1141, (S)-N-((S)-3-(Cyclopent-1-en-1-yl)-1-((R)-2-methyloxiran-2-yl)-1-oxopropan-2-yl)-3-(2-methoxypyridin-4-yl)-2-((S)-2-(2-morpholinoacetamido)propanamido)propanamide]: the concentration in solution in “Solubility pH 7” (solubility) came to 9010 µg/mL (≈ 15.8 mM).

`COc1ccc(C[C@H](NC(=O)[C@H](C)NC(=O)CN2CCOCC2)C(=O)N[C@@H](C[C@H]2[C@@H]3CCC[C@@H]32)C(=O)[C@@]2(C)CO2)cc1` [Compound C-1142, (S)-N-((S)-3-((1R,5S,6r)-bicyclo[3.1.0]hexan-6-yl)-1-((R)-2-methyloxiran-2-yl)-1-oxopropan-2-yl)-3-(4-methoxyphenyl)-2-((S)-2-(2-morpholinoacetamido)propanamido)propanamide] yielded a solubility in “Solubility pH 7” of 2340 µg/mL (≈ 4 mM). This solubility lies about 3.9-fold lower than the previous one.

With `COc1ccc(C[C@H](NC(=O)[C@@H](COCc2ccccc2)NC(=O)CN2CCOCC2)C(=O)N[C@@H](Cc2ccccc2)C(=O)[C@@]2(C)CO2)cc1` [Compound C-1156], the half-maximal inhibitory concentration (IC50) in data set [1] (read-out: ProCISE LMP7 MOLT4 lysate Hu 1 h CONT: IC50, 1 h continuous treatment, 25° C.) was found to be 50.8 nM; in data set [2] (read-out: ProCISE beta5 MOLT4 lysate Hu 1 h CONT: IC50), 175 nM.

In the data set “Solubility pH 7”, `COc1ccc(C[C@H](NC(=O)[C@H](C)NC(=O)CN2CCOCC2)C(=O)N[C@@H](Cc2ccc(C#N)cc2)C(=O)[C@@]2(C)CO2)cc1` [Compound C-1163] showed a solubility of 2460 µg/mL (≈ 4.06 mM).

Regarding `COc1ccc(C[C@H](NC(=O)[C@H](C)NC(=O)[C@@H]2CCCN2C)C(=O)N[C@@H](Cc2ccccc2)C(=O)[C@@]2(C)CO2)cc1` [Compound C-1165], the solubility in the data set “Solubility pH 7” was 2150 µg/mL (≈ 3.8 mM). This solubility and that of the compound before are within 1.5-fold of each other.

In turn, `COc1ccc(C[C@H](NC(=O)[C@H](C)NC(=O)C2COC2)C(=O)N[C@@H](Cc2ccccc2)C(=O)[C@@]2(C)CO2)cc1` [Compound C-1168] displayed a solubility in “Solubility pH 7” of 213 µg/mL (≈ 0.396 mM).

With `COc1ccc(C[C@H](NC(=O)[C@H](C)NC(=O)C2CN(C)C2)C(=O)N[C@@H](Cc2ccccc2)C(=O)[C@@]2(C)CO2)cc1` [Compound C-1172, N-((S)-1-(((S)-3-(4-methoxyphenyl)-1-(((S)-1-((R)-2-methyloxiran-2-yl)-1-oxo-3-phenylpropan-2-yl)amino)-1-oxopropan-2-yl)amino)-1-oxopropan-2-yl)-1-methylazetidine-3-carboxamide], in “Solubility pH 7”, the concentration in solution (solubility) came to 1900 µg/mL (≈ 3.46 mM).

Regarding `COc1ccc(C[C@H](NC(=O)C(C)NC(=O)CN2CCOCC2)C(=O)N[C@H](C(=O)[C@@]2(C)CO2)c2ccccc2)cc1` (stereo partly drawn) [Compound C-1176], the concentration in solution in the data set “Solubility pH 7” (solubility) came to 1890 µg/mL (≈ 3.34 mM).

Consider `C[C@H](NC(=O)CN1CCOCC1)C(=O)N[C@@H](CC1CC1)C(=O)N[C@@H](Cc1ccccc1)C(=O)[C@@]1(C)CO1` [Compound C-1224, (S)-3-cyclopropyl-N-((S)-1-((R)-2-methyloxiran-2-yl)-1-oxo-3-phenylpropan-2-yl)-2-((S)-2-(2-morpholinoacetamido)propanamido)propanamide], for which the concentration in solution in “Solubility pH 7” (solubility) came to 257 µg/mL (≈ 0.5 mM).

In the case of `COc1ccc(C[C@H](NC(=O)[C@H](C)NC(=O)CN2CCOCC2)C(=O)N[C@@H](CC(F)(F)F)C(=O)[C@@]2(C)CO2)cc1` [Compound C-1226], in the data set “Solubility pH 7”, the solubility came out at 3820 µg/mL (≈ 6.67 mM).

`CC#CC[C@H](NC(=O)[C@H](Cc1ccc(OC)cc1)NC(=O)[C@H](C)NC(=O)CN1CCOCC1)C(=O)[C@@]1(C)CO1` [Compound C-1228] had a solubility in the data set “Solubility pH 7” of 682 µg/mL (≈ 1.26 mM).
